Biological target: Serine/threonine-protein kinase PLK1 (Homo sapiens, UniProt P53350)
Sequence (P53350 whole entry): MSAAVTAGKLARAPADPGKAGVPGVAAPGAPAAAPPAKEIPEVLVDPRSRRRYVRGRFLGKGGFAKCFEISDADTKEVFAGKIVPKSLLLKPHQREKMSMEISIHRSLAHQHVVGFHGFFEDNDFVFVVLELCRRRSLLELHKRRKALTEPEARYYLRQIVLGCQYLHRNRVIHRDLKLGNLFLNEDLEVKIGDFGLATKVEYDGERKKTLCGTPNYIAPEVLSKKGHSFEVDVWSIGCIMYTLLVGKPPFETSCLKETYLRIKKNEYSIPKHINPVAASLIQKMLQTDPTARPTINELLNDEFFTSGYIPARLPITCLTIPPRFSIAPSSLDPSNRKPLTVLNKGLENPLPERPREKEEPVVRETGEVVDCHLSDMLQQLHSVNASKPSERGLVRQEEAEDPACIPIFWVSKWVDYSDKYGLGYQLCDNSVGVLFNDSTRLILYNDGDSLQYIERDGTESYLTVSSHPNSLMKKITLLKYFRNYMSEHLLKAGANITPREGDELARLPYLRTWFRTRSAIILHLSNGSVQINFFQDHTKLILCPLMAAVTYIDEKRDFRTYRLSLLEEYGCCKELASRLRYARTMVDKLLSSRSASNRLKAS

IC50: 720 nM
Structure (SMILES): Cc1cc(NC(=O)Nc2ncc(CCNc3cc(Nc4nnc[nH]4)ncn3)s2)c(C(F)(F)F)o1

Reference: ChEMBL document CHEMBL1156260, “Through the "gatekeeper door": exploiting the active kinase conformation” (J Med Chem, 2010)
